Laboratory results from patent publication EP0326329B1, “Quinazoline derivatives useful as insecticides” (Dow AgroSciences LLC, priority 1988, dated 1989).

Legend:
Type in all cases: in vivo
[1] = system: Erysiphe graminis tritici (powdery mildew); experiment: Greenhouse Test 1, foliar spray fungicide screen (POWD MDEW), host wheat; conditions: disease control rating, 400 ppm (+++ at 100 ppm)
[2] = system: Pyricularia oryzae (rice blast); conditions: disease control rating, foliar spray, host rice; 400 ppm (+++ at 100 ppm)
[3] = system: Puccinia recondita tritici (leaf rust); experiment: Greenhouse Test 1, foliar spray fungicide screen (LEAF RUST), host wheat; conditions: disease control rating, 400 ppm (+++ at 100 ppm)
[4] = system: Botrytis cinerea (gray mold); experiment: Greenhouse Test 1, foliar spray fungicide screen (GRAY MOLD), host grape berries; conditions: disease control rating, 400 ppm (+++ at 100 ppm)
[5] = system: Pseudoperonospora cubensis (downy mildew); experiment: Greenhouse Test 1, foliar spray fungicide screen (DOWN MDEW), host squash; conditions: disease control rating, 400 ppm (+++ at 100 ppm)
[6] = system: Southern corn rootworm (Diabrotica undecimpuctata howardi Barber); experiment: Mite/insect screen, soil treatment (CRW); conditions: percent mortality; for mortality at 12 ppm / mortality at 24 ppm: Diabrotica, soil treatment, read-out: CRW RESULTS %; for mortality at 12 ppm: CRW rate 12.00 ppm; for mortality at 24 ppm: CRW rate 24.00 ppm; for CRW RESULTS %: rate not given
Protocol: (§1) The compounds of Examples 1-203 were tested for miticidal and insecticidal activity in the following mite/insect screen.
(§2) Each test compound was formulated by dissolving the compound in acetone/alcohol (50:50) mixture containing 23 g of "TOXIMUL R" (sulfonate/nonionic emulsifier blend) and 13 g of "TOXIMUL S" (sulfonate/nonionic emulsifier blend) per liter. These mixtures were then diluted with water to give the indicated concentrations.
Activity on Southern corn rootworm (Diabrotica undecimpuctata howardi Barber) was evaluated by adding two ml of tap water, a presoaked corn seed, and 15 g of dry sandy soil to a one ounce plastic container. The soil was treated with 1 mL of test solution containing a pre-determined concentration of test compound. After six to 12 hours of drying, five 2-3 instar corn rootworm larvae were added to the individual cups, which were then capped and held at 23°C.
(§3) After standard exposure periods, percent mortality and phytotoxicity were evaluated. […]

[7] = system: southern armyworm (Spodopetra eridania Cramer); experiment: Mite/insect screen, sprayed squash leaves (SAW); conditions: percent mortality; for mortality at 200 ppm / mortality at 400 ppm: Spodoptera eridania, read-out: SAW RESULTS %; for mortality at 200 ppm: spray rate 200 ppm; for mortality at 400 ppm: spray rate 400 ppm; for SAW RESULTS %: rate not given
Protocol: as §1, §2
(§4) Other plants in the same treatment pot were left uninfested. The leaves were then sprayed with 5 ml of test solution using a DeVilbiss atomizing sprayer at 10 psi. Both surfaces of the leaves were covered until runoff, and then allowed to dry for one hour. Two uninfested leaves were then excised and placed into a Petri dish containing larval southern armyworm (Spodopetra eridania Cramer).
as §3

[8] = system: Twospotted spider mites (Tetranychus urticae Koch); experiment: Mite/insect screen, sprayed squash cotyledons (SM); conditions: percent mortality; for mortality at 200 ppm / mortality at 400 ppm: Tetranychus urticae, read-out: SM RESULTS %; for mortality at 200 ppm: spray rate 200 ppm; for mortality at 400 ppm: spray rate 400 ppm; for SM RESULTS %: rate not given
Protocol: as §1, §2, §4, §3

[9] = system: melon aphids (Aphis gossypii Glover); experiment: Mite/insect screen, sprayed squash cotyledons (MA); conditions: percent mortality; for mortality at 200 ppm / mortality at 400 ppm: Aphis gossypii, read-out: MA RESULTS %; for mortality at 200 ppm: spray rate 200 ppm; for mortality at 400 ppm: spray rate 400 ppm; for MA RESULTS %: rate not given
Protocol: as §1, §2, §4, §3

Row | SMILES | POWD MDEW [1] | RICE BLAST [2] | LEAF RUST [3] | GRAY MOLD [4] | DOWN MDEW [5] | mortality at 12 ppm [6] | mortality at 24 ppm [6] | mortality at 200 ppm [7] | mortality at 400 ppm [7] | mortality at 200 ppm [8] | mortality at 400 ppm [8] | mortality at 200 ppm [9] | mortality at 400 ppm [9] | CRW RESULTS % [6] | SAW RESULTS % [7] | SM RESULTS % [8] | MA RESULTS % [9]
1 | Fc1cccc2c(OCCCc3ccc(Oc4ccccc4)cc3)ncnc12 [Example 119, 8-fluoro-4-[3-(4-phenoxyphenyl)propoxy]quinazoline] | + (+ = 20-89% control at 400 ppm) | ++ (++ = 90-100% control at 400 ppm) | + (+ = 20-89% control at 400 ppm) | - (- = 0-19% control at 400 ppm) | - (- = 0-19% control at 400 ppm) | 0% | 0% | 0% | 90% | 50% | 0% | 80% | 0% | – | – | – | –
2 | CCOc1ccc(CCOc2ncnc3ccccc23)cc1OC [Example 21, 4-[2-(4-ethoxy-3-methoxyphenyl)ethoxy]quinazoline] | +++ (+++ = 90-100% control at 100 ppm) | +++ (+++ = 90-100% control at 100 ppm) | +++ (+++ = 90-100% control at 100 ppm) | - (- = 0-19% control at 400 ppm) | +++ (+++ = 90-100% control at 100 ppm) | – | 100% | – | 0% | – | 60% | – | 80% | – | – | – | –
3 | Clc1ccc(CCNc2ncnc3ccc(Br)cc23)cc1 [Example 37, N-[2-(4-chlorophenyl)ethyl]-6-bromo-4-quinazolinamine] | - (- = 0-19% control at 400 ppm) | - (- = 0-19% control at 400 ppm) | - (- = 0-19% control at 400 ppm) | - (- = 0-19% control at 400 ppm) | - (- = 0-19% control at 400 ppm) | 0% | 0% | 0% | 0% | 0% | 0% | 0% | 0% | – | – | – | –
4 | CC(C)c1ccc(CCCOc2ncnc3ccccc23)cc1 [Example 143, 4-[3-[4-(1-methylethyl)phenyl]propoxy]quinazoline] | + (+ = 20-89% control at 400 ppm) | ++ (++ = 90-100% control at 400 ppm) | - (- = 0-19% control at 400 ppm) | - (- = 0-19% control at 400 ppm) | ++ (++ = 90-100% control at 400 ppm) | 0% | 0% | 80% | 0% | 0% | 0% | 0% | 0% | – | – | – | –
5 | Cc1cccc(CCOc2ncnc3ccccc23)c1 [Example 97, 4-[2-(3-methylphenyl)ethoxy]quinazoline] | +++ (+++ = 90-100% control at 100 ppm) | ++ (++ = 90-100% control at 400 ppm) | +++ (+++ = 90-100% control at 100 ppm) | - (- = 0-19% control at 400 ppm) | ++ (++ = 90-100% control at 400 ppm) | – | 0% | – | 0% | – | 0% | – | 0% | – | – | – | –
6 | Clc1ccccc1CCOc1ncnc2ccccc12 [Example 11, 4-[2-(2-chlorophenyl)ethoxy]quinazoline] | ++ (++ = 90-100% control at 400 ppm) | - (- = 0-19% control at 400 ppm) | ++ (++ = 90-100% control at 400 ppm) | - (- = 0-19% control at 400 ppm) | +++ (+++ = 90-100% control at 100 ppm) | – | 0% | – | 0% | – | 0% | – | 0% | – | – | – | –
7 | COc1ccc(CCOc2ncnc3ccccc23)cc1 [Example 49, 4-[2-(4-methoxyphenyl)ethoxy]quinazoline] | +++ (+++ = 90-100% control at 100 ppm) | +++ (+++ = 90-100% control at 100 ppm) | +++ (+++ = 90-100% control at 100 ppm) | - (- = 0-19% control at 400 ppm) | +++ (+++ = 90-100% control at 100 ppm) | – | 0% | – | 0% | – | 80% | – | 0% | 0% | 0% | 90% | 100%
8 | CC(COc1ncnc2ccccc12)c1ccc(Oc2ccccc2)cc1 (stereo not drawn) [Example 161, 4-[2-(4-phenoxyphenyl)propoxy]quinazoline] | + (+ = 20-89% control at 400 ppm) | + (+ = 20-89% control at 400 ppm) | ++ (++ = 90-100% control at 400 ppm) | - (- = 0-19% control at 400 ppm) | - (- = 0-19% control at 400 ppm) | 0% | 100% | 20% | 100% | 70% | 0% | 30% | 0% | – | – | – | –
9 | Clc1cccc(CCOc2ncnc3ccccc23)c1 [Example 41, 4-[2-(3-chlorophenyl)ethoxy]quinazoline] | +++ (+++ = 90-100% control at 100 ppm) | ++ (++ = 90-100% control at 400 ppm) | +++ (+++ = 90-100% control at 100 ppm) | - (- = 0-19% control at 400 ppm) | +++ (+++ = 90-100% control at 100 ppm) | – | 0% | – | 0% | – | 80% | – | 80% | 0% | 0% | 0% | 100%
10 | c1ccc(Oc2ccccc2CCNc2ncnc3ccccc23)cc1 [Example 45, N-[2-(2-phenoxyphenyl)ethyl]-4-quinazolinamine] | + (+ = 20-89% control at 400 ppm) | - (- = 0-19% control at 400 ppm) | +++ (+++ = 90-100% control at 100 ppm) | - (- = 0-19% control at 400 ppm) | + (+ = 20-89% control at 400 ppm) | – | 0% | – | 0% | – | 0% | – | 0% | – | – | – | –
11 | CC(C)(C)c1ccc(CCCNc2ncnc3ccc(Cl)cc23)cc1 [Example 140, 6-chloro-N-(3-[4-(1,1-dimethylethyl)phenyl]propyl]-4-quinazoline] | + (+ = 20-89% control at 400 ppm) | ++ (++ = 90-100% control at 400 ppm) | + (+ = 20-89% control at 400 ppm) | - (- = 0-19% control at 400 ppm) | ++ (++ = 90-100% control at 400 ppm) | 0% | 0% | 0% | 0% | 0% | 80% | 0% | 0% | – | – | – | –
12 | CC(C)(C)c1ccc(CCCOc2ncnc3c(F)cccc23)cc1 [Example 149, 8-fluoro-4-[3-[4-(1,1-dimethylethyl)phenyl]propoxy]quinazoline] | ++ (++ = 90-100% control at 400 ppm) | - (- = 0-19% control at 400 ppm) | - (- = 0-19% control at 400 ppm) | - (- = 0-19% control at 400 ppm) | - (- = 0-19% control at 400 ppm) | 0% | 0% | 0% | 0% | 0% | 0% | 0% | 0% | – | – | – | –
13 | FC(F)(F)c1cc(CCOc2ncnc3ccccc23)cc(C(F)(F)F)c1 [Example 128, 4-[2-[3,5-di(trifluoromethyl)phenyl]ethoxy]quinazoline] | ++ (++ = 90-100% control at 400 ppm) | + (+ = 20-89% control at 400 ppm) | + (+ = 20-89% control at 400 ppm) | - (- = 0-19% control at 400 ppm) | + (+ = 20-89% control at 400 ppm) | 0% | 0% | 0% | 0% | 0% | 0% | 0% | 0% | – | – | – | –
